Patent publication US11111217B2, “2-arylbenzimidazoles as Ppargc1a activators for treating neurodegenerative diseases” (The Board of Trustees of the Leland Stanford Junior …, priority 2018, dated 2021)
Where “and” joins values, the source holds several entries; their conditions need not be identical. Identical values can stand only once.

How the values were obtained:
[1] = tested on: TNF-α production by BV2 cells or PBMC; assay: Cellular assay to measure TNF-α inhibition (LPS-stimulated, ELISA); assay type: cell-based, murine (BV2) or human (PBMC); details: BV2 cells or PBMC (not specified), LPS 100 ng/ml over 24 hours, relative to DMSO vehicle; compound concentration not stated
From the text: Oxidative metabolism exerts an anti-inflammatory effect on myeloid cell phenotype (O'Neill L A, Front Immunol. 2014) and Ppargc1a can promote this energy metabolic pathway (Spiegelman BM, Novartis Found Symp. 2007). Thus, pharmacological activation of Ppargc1a would be expected to inhibit the inflammatory response of myeloid cells. This phenomenon can be measured in cultures by a TNF-α inhibition assay.
Cellular Assay Protocol to Measure TNF-α Inhibition
The murine myeloid cell line BV2 or human peripheral blood mononuclear cells (PBMC) are cultured in RPMI 1640 media (Cat #11875119, Gibco) supplemented with 10% fetal bovine serum and 1% L-glutamine 1% penicillin. These cells are then stimulated with 100 ng/ml of lipopolysaccharide (LPS, O111:B34, Cat # L2630, Sigma) over 24 hours. LPS stimulation results in the secretion of the inflammatory cytokine TNF-α by BV2 cells or PBMC, which can be quantified by ELISA in culture supernatant samples per manufacturer's protocol (Cat #558273 for BV2 and Cat #558299 for PBMC, BD Biosciences). To determine whether exampl compounds 1-78 inhibit TNF-α production by BV2 cells or PBMC, the cells were cultured in the presence of the compounds at different concentrations, and fold reduction in TNF-α production relative to TNF-α production by the same cells cultured in the presence of dimethylsulfoxide (as vehicle control) was determined.

[2] = Microsome stability assay, human liver microsomes; assay type: in vitro ADME; details: pH 7.4, 1 μM test compound, NADPH 1 mM, 37° C., 0-40 mins, read-out: HLM t1/2
Description: (§1) Microsome Stability Assay Protocol
(§2) Human liver microsomes (Corning #452117 lot 38291) or Mouse liver microsomes (Corning #452701, lot #6328004) were separately combined at a final concentration of […] with KxPO4 pH 7.4 (100 mM), MgCl2 (10 mM), and test compound (1 μM) and pre-incubated (10 min, 37° C.). Next, NADPH (1 mM) was added to begin reactions (total volume 100 μL). At various time points (0, 10, 20, and 40 mins), reactions were quenched with Clem stop solution (100 μL, 625 ng/mL) (Cyprotex) in Acetonitrile. Samples were centrifuged at 4000 g for 20 mins, diluted (75 μL into 75 μL 0.1% formic acid in water), and analyzed by LC-MS/MS.

[3] = Microsome stability assay, mouse liver microsomes; assay type: in vitro ADME; details: pH 7.4, 1 μM test compound, NADPH 1 mM, 37° C., 0-40 mins, read-out: MLM t1/2
Description: as §1, §2

[4] = Caco-2 permeability assay; details: human, Caco-2, pH 7.4, with elacridar (concentration not stated)
Caco-2 cells = assay: Caco-2 permeability assay; details: 10 μM, HBSS pH 7.4, 37° C., 2 h; for Caco2 A → B: without elacridar
Description: Caco-2 Permeability Assay Protocol
Caco-2 cells were maintained in DMEM in an atmosphere of 5% CO2. For transport experiments 5×10^5 cells/well of were seeded on polycarbonate filter inserts and allowed to grow and differentiate for 21±4 days before the cell monolayers were used for experiments. Apparent permeability coefficients were determined for A→B and B→A directions with and without the presence of elacridar as a transporter inhibitor. Up to three test items and reference compounds were dissolved in Hank's balanced salt solution at pH 7.4 to yield a final concentration of 10 μM.
The assays were performed in HBSS containing 25 mM HEPES (pH 7.4) at 37° C. Prior to the study, the monolayers were washed in prewarmed HBSS. At the start of the experiments prewarmed HBSS containing the test items was added to the donor side of the monolayer and HBSS without test items was added to the receiver side. Aliquots of the receiver side were taken over the 2 h incubation period; aliquots of the donor side were taken at 0 hand 2 h. Aliquots were diluted with an equal volume of methanol/water with 0.1% formic acid containing the internal standard. The mixture was analyzed by LC-MS/MS. The apparent permeability coefficients (Papp) were calculated using the formula: Papp=(dCrec/dt)/(A×C0,donor)]×106 with dCrev/dt being the change in concentration in the receiver compartment with time, C0,donor the concentration in the donor compartment at time 0, and A the area of the compartment with the cells.

Structure (SMILES): CC(C)(C)c1ccc(-c2cn3ccccc3n2)cc1 [Example 5, 2-(4-tert-Butylphenyl)imidazo[1,2-a]pyridine]
- TNF α Inhibition [1]: A (A = >80% inh.)
- half-life at 1 μM [2]: 11.5 min
- half-life at 1 μM [3]: 8.4 min
- Papp A→B at 2 h, 10 μM [4]: 0.858 ×10⁻⁶ cm/s
- Caco2 A → B (Caco-2 cells): 9.86 nm/s

Structure (SMILES): CC(C)(C)c1ccc(-c2nc3c(F)c(F)c(F)cc3[nH]2)cc1 [Example 64, 2-(4-tert-Butylphenyl)-4,5,6-trifluoro-1H-benzo[d]imidazole]
- TNF α Inhibition [1]: A (A = >80% inh.)
- half-life at 1 μM [2]: 112 min
- half-life at 1 μM [3]: 83.1 min
- Papp A→B at 2 h, 10 μM [4]: 0.00126 ×10⁻⁶ cm/s
- Caco2 B → A (Caco-2 cells): 2.54 nm/s
- Caco2 A → B w/ elacridar (Caco-2 cells; with elacridar as transporter inhibitor): 0.792, nm/s

Structure (SMILES): CC(C)(C)c1ccc(-c2nc3cc(N)ccc3[nH]2)cc1 [Example 44, 2-(4-tert-Butylphenyl)-1H-benzo[d]imidazol-5-amine]
- TNF α Inhibition [1]: A (A = >80% inh.)
- half-life at 1 μM [2]: 42.5 min
- half-life at 1 μM [3]: 20.6 min
- Papp A→B at 2 h, 10 μM [4]: 2.05 ×10⁻⁶ cm/s
- Caco2 B → A (Caco-2 cells): 45.4 nm/s
- Caco2 A → B (Caco-2 cells): 23.6 nm/s

Structure (SMILES): CC(C)(C)c1ccc(-c2nc3cc(C(N)=O)ccc3[nH]2)cc1 [Example 75, 2-(4-tert-Butylphenyl)-1H-benzo[d]imidazol-5-carboxamide]
- TNF α Inhibition [1]: A (A = >80% inh.)
- Papp A→B at 2 h, 10 μM [4]: 1.33 ×10⁻⁶ cm/s
- Caco2 B → A (Caco-2 cells): 28.5 nm/s
- Caco2 A → B (Caco-2 cells): 16 nm/s

Structure (SMILES): [2H]c1cc([2H])c2nc(-c3ccc(C(C)(C)C)cc3)[nH]c2c1 [Example 61, 2-(4-tert-Butylphenyl)-4,6-dideuterio-1H-benzo[d]imidazole]
- TNF α Inhibition [1]: A (A = >80% inh.)
- half-life at 1 μM [2]: 13.6 min
- half-life at 1 μM [3]: 23.8 min
- Papp A→B at 2 h, 10 μM [4]: 1.06 ×10⁻⁶ cm/s
- Caco2 A → B (Caco-2 cells): 15.5 nm/s

Structure (SMILES): CC(C)(C)c1cccc(-c2nc3c(F)cc(F)cc3[nH]2)c1 [Example 77, 2-(3-tert-Butylphenyl)-4,6-difluoro-1H-benzo[d]imidazole]
- TNF α Inhibition [1]: A (A = >80% inh.)
- half-life at 1 μM [2]: 31.3 min
- half-life at 1 μM [3]: 10.5 min
- Papp A→B at 2 h, 10 μM [4]: 0.0634 ×10⁻⁶ cm/s
- Caco2 A → B (Caco-2 cells): 13.3 nm/s

Structure (SMILES): COC(=O)n1c(-c2ccc(C(C)(C)C)cc2)nc2ccccc21 [Example 14-P, Methyl 2-(4-(tert-butyl)phenyl)-1H-benzo[d]imidazole-1-carboxylate]
- half-life at 1 μM [2]: 25.1 min
- half-life at 1 μM [3]: 5.5 min
- Papp A→B at 2 h, 10 μM [4]: 0.251 ×10⁻⁶ cm/s
- Caco2 A → B (Caco-2 cells): 9.33 nm/s and 6.35 nm/s

Structure (SMILES): CC(C)(C)c1ccc(-c2nc3cnccc3[nH]2)cc1 [Example 2, 2-(4-(tert-Butyl)phenyl)-1H-imidazo[4,5-c]pyridine]
- TNF α Inhibition [1]: A (A = >80% inh.)
- Papp A→B at 2 h, 10 μM [4]: 2.15 ×10⁻⁶ cm/s
- Caco2 B → A (Caco-2 cells): 57.1 nm/s
- Caco2 A → B (Caco-2 cells): 24.7 nm/s and 22.3 nm/s

Structure (SMILES): CCCC(=O)OCn1c(-c2ccc(C(C)(C)C)cc2)nc2ccccc21 [Example 2-P, (2-(4-(tert-Butyl)phenyl)-1H-benzo[d]imidazol-1-yl)methyl butyrate]
- Papp A→B at 2 h, 10 μM [4]: 0.0282 ×10⁻⁶ cm/s
- Caco2 A → B (Caco-2 cells): 0.532 nm/s and 1.01 nm/s

Structure (SMILES): Cc1cccc(-c2nc3ccccc3[nH]2)c1 [Example 9, 2-(3-Methylphenyl)-1H-benzo[d]imidazole]
- TNF α Inhibition [1]: C (C = <50% inh.)

Structure (SMILES): CC(C)(C)c1ccc(-c2nc3cc(Cl)ccc3[nH]2)cc1 [Example 37, 2-(4-tert-Butylphenyl)-5-chloro-1H-benzo[d]imidazole]
- TNF α Inhibition [1]: A (A = >80% inh.)

Structure (SMILES): CC(C)Oc1ccc(-c2nc3ccccc3[nH]2)cc1 [Example 69, 2-(4-Isopropoxyphenyl)-1H-benzo[d]imidazole]
- TNF α Inhibition [1]: A (A = >80% inh.)

Structure (SMILES): CC(C)(C)c1ccc(-c2nc3cc(F)ccc3[nH]2)cc1 [Example 41, 2-(4-tert-Butylphenyl)-5-fluoro-1H-benzo[d]imidazole]
- TNF α Inhibition [1]: C (C = <50% inh.)

Structure (SMILES): FC(F)(F)c1ccccc1-c1nc2ccccc2[nH]1 [Example 22, 2-(2-Trifluoro-methylphenyl)-1H-benzo[d]imidazole]
- TNF α Inhibition [1]: C (C = <50% inh.)

Structure (SMILES): CC(=O)OCn1c(-c2ccc(C(C)(C)C)cc2)nc2ccccc21 [Example 1-P, (2-(4-(tert-Butyl)phenyl)-1H-benzo[d]imidazol-1-yl)methyl acetate]
- half-life at 1 μM [2]: 10.1 min
- Papp A→B at 2 h, 10 μM [4]: 0.105 ×10⁻⁶ cm/s

Structure (SMILES): Oc1cccc(-c2nc3ccccc3[nH]2)c1 [Example 40, 2-(3-Hydroxyphenyl)-1H-benzo[d]imidazole]
- TNF α Inhibition [1]: C (C = <50% inh.)

Structure (SMILES): CC(C)(C)c1ccc(-c2nc3ccccc3n2COP(=O)(O)O)cc1 [Example 10-P, Dihydrogen ((2-(4-(tert-butyl)phenyl)-1H-benzo[d]imidazol-1-yl)methyl) phosphate]
- half-life at 1 μM [2]: 159 min
- half-life at 1 μM [3]: 159 min
- Papp A→B at 2 h, 10 μM [4]: 0.0014 ×10⁻⁶ cm/s
- Caco2 A → B (Caco-2 cells): 0.0893, nm/s and 0.0565 nm/s

Structure (SMILES): FC(F)(F)Oc1ccc(-c2nc3ccccc3[nH]2)cc1 [Example 66, 2-(4-Trifluoromethoxyphenyl)-1H-benzo[d]imidazole]
- TNF α Inhibition [1]: C (C = <50% inh.)

Structure (SMILES): N#Cc1ccc(-c2nc3ccccc3[nH]2)cc1 [Example 18, 2-(4-Cyanophenyl)-1H-benzo[d]imidazole]
- TNF α Inhibition [1]: C (C = <50% inh.)

Structure (SMILES): COc1cccc(-c2nc3ccccc3[nH]2)c1 [Example 20, 2-(3-Methoxy-phenyl)-1H-benzo[d]imidazole]
- TNF α Inhibition [1]: C (C = <50% inh.)

Structure (SMILES): FC(F)Oc1ccc(-c2nc3ccccc3[nH]2)cc1 [Example 70, 2-(4-(Difluoromethoxy)phenyl)-1H-benzo[d]imidazole]
- TNF α Inhibition [1]: B (B = 50-80% inh.)

Structure (SMILES): Clc1cccc(-c2nc3ccccc3[nH]2)c1 [Example 27, 2-(3-Chlorophenyl)-1H-benzo[d]imidazole]
- TNF α Inhibition [1]: C (C = <50% inh.)

Structure (SMILES): COc1ccccc1-c1nc2ccccc2[nH]1 [Example 25, 2-(2-Methoxy-phenyl)-1H-benzo[d]imidazole]
- TNF α Inhibition [1]: C (C = <50% inh.)

Structure (SMILES): CC(C)(C)Oc1ccc(-c2nc3ccccc3[nH]2)cc1 [Example 71, 2-(4-tert-Butoxyphenyl)-1H-benzo[d]imidazole]
- TNF α Inhibition [1]: B (B = 50-80% inh.)

Structure (SMILES): Nc1ccccc1-c1nc2ccccc2[nH]1 [Example 48, 2-(2-Aminophenyl)-1H-benzo[d]imidazole]
- TNF α Inhibition [1]: C (C = <50% inh.)

Structure (SMILES): CC(C)(C)c1ccc(-c2nc3cc(O)ccc3[nH]2)cc1 [Example 32, 2-(4-tert-Butylphenyl)-1H-benzo[d]imidazol-5-ol]
- TNF α Inhibition [1]: A (A = >80% inh.)
